The record followed here is PMC12064818, “A general assay platform to study protein pharmacology using ligand-dependent structural dynamics” (Nature Communications, 2025).

Some results are limits rather than exact numbers.

The experiment concerns the target T1, FLuc-C-HiBiT (Photinus pyralis, UniProt P08659).
T1 construct: firefly luciferase with C-terminal HiBiT tag, E. coli expressed
Briefly: biochemical. To be noted: enzyme activity, 10 uM ATP; read-out: IC50 or SDR50 (mM) / FLuc E.

T1 sequence (P08659 whole entry, looked up): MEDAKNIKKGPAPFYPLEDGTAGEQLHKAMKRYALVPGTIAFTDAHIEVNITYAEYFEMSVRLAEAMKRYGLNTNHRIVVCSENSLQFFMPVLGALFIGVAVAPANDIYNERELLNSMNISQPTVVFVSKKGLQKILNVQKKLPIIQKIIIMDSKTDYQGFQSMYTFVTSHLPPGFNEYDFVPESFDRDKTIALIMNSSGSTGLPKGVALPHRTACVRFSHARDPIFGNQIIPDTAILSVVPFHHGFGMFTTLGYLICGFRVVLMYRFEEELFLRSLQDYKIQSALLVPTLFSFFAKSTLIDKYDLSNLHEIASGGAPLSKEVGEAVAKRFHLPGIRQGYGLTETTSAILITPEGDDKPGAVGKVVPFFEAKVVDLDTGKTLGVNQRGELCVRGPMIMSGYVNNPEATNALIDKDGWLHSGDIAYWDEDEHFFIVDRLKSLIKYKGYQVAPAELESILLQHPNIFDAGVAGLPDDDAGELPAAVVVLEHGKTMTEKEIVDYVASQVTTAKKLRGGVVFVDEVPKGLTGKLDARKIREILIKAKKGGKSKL

As for `O=C(CSc1ccc(F)cc1)Nc1ccccc1-c1nc2ccccc2s1` [NCGC00274247-01], the IC50 is more than 0.03 mM. Regarding `COc1ccc(-c2nc3cc(F)ccc3s2)cc1OC` [NCGC00344018-01], the IC50 amounted to 0.00157 mM. For `O=C(CCC[S+](=O)([O-])c1ccc(Cl)cc1)Nc1ccc(O)c(-c2nc3ccccc3s2)c1` [NCGC00347270-01], the IC50 was more than 0.03 mM.

With `COc1cccc(-c2nc3cc(NC(=O)c4ccc(C)c([N+](=O)[O-])c4)ccc3s2)c1` [NCGC00348177-01], the IC50 is more than 0.03 mM. `COc1cccc(-c2nc3cc(NC(=O)c4ccc(F)c(C#N)c4)ccc3s2)c1` [NCGC00350766-01]: the IC50 is more than 0.03 mM. The same measure for `COc1ccc(-c2nc3ncccc3[nH]2)cc1` [NCGC00375673-01]: 0.016 mM; for `O=C(O)C1CN(Cc2ccc(-c3nc4cc(Cc5ccccc5F)ccc4s3)c(F)c2)C1` [NCGC00379113-01]: more than 0.03 mM. On to `Cc1cc(-c2nc3cc(F)ccc3s2)ccc1NC(=O)[C@@H](N)CCCCN` [NCGC00379246-02], for which the IC50 is 0.00248 mM. For `CC(C)(Oc1ccc(-c2nc3cc(Cl)ccc3s2)cc1)C(=O)O` [NCGC00386771-01], the IC50 was determined as 0.00881 mM. The same measure for `Cc1ccc2nc(-c3ccc4nc(-c5ccc(NC(=O)c6cccc(Cl)c6)cc5)sc4c3)sc2c1[S+](=O)([O-])O` [NCGC00386846-01]: 0.00442 mM; for `CCCCNc1nc(N)c2[nH]c(=O)n(Cc3ccc(OCCN(C)C)nc3)c2n1` [NCGC00387452-01]: more than 0.03 mM; for `Nc1nc(=O)c2[nH]c(=O)n(C3OC(CO)C(O)C3O)c2[nH]1` (stereo not shown) [NCGC00390457-01]: more than 0.03 mM. On to `Nc1nc(=O)c2[nH]c(=O)n(C3CC(O)C(CO)O3)c2[nH]1` (stereo not shown) [NCGC00390462-01], for which the IC50 is more than 0.03 mM. Turning to `COc1cc(-c2nc3ccccc3s2)ccc1O` [NCGC00390758-02], the IC50 was found to be 0.0111 mM. Consider `O=C(Nc1ccc([C@H]2OCC(=O)N(C3CCOCC3)[C@@H]2CO)cc1)c1ccc(C(F)(F)F)cc1` [NCGC00391115-01], for which the IC50 is 0.0124 mM. For `Cc1ccc2[nH]c([C@H]3CCN(C(C)C)C3)nc2c1` [NCGC00391182-01] the value was 0.0254 mM; for `Fc1ccc2[nH]c([C@H]3CCN(Cc4ccccc4F)C3)nc2c1` [NCGC00391187-01], 0.0143 mM. With `Cc1ccccc1CN1CC[C@H](c2nc3ccccc3s2)C1` [NCGC00391192-01], the IC50 is 0.018 mM. The same measure for `COCC(=O)Nc1nc2c(s1)C[C@]1(C)CC[C@@H]3[C@H](OC(=O)[C@H]3C)[C@H]1[C@@H]2C` [NCGC00391224-01]: 0.00161 mM. For `CC(C)c1ccc(N2C(=S)N[C@H]3[C@@H](O)[C@H](O)C[C@@H](C(=O)N(C)Cc4ccccc4)[C@H]32)cc1` [NCGC00391233-01] the value was 0.0111 mM; for `Cc1nn(-c2ccc(C(C)C)cc2)c(C)c1[C@@H]1C=C[C@@H](NC(=S)NCC(C)C)C1` [NCGC00391239-01], 0.0286 mM. Regarding `C[C@@H]1C(=O)O[C@H]2[C@H]1CC[C@@]1(C)Cc3sc(NC(=O)COCC(=O)O)nc3[C@@H](C)[C@H]21` [NCGC00391314-01], the IC50 came out at 0.0057 mM.

For the molecule `C[C@@H]1C(=O)O[C@H]2[C@H]1CC[C@@]1(C)Cc3sc(NCCc4ccccn4)nc3[C@@H](C)[C@H]21` [NCGC00391315-01], the IC50 was determined as 0.0161 mM. For the molecule `C[C@@H]1C(=O)O[C@H]2[C@H]1CC[C@@]1(C)Cc3sc(NCc4ccccc4)nc3[C@@H](C)[C@H]21` [NCGC00391358-01], the IC50 was determined as 0.00718 mM. The same measure for `COCCNC(=O)[C@@H](C)C1CC[C@@]2(C)Cc3sc(CSc4ccccc4)nc3[C@@H](C)[C@@H]2[C@H]1O` (stereo partly shown) [NCGC00391430-01]: 0.0111 mM; for `CSCC(=O)N[C@H]1CCN2C(=O)c3cc(-c4ccc(SC)cc4)ccc3NC(=O)[C@H]12` [NCGC00391740-01]: 0.0111 mM. `COc1ccc(/C=C/c2ccc3c(c2)C(=O)N2CC[C@H](NC(=O)CCC(=O)O)[C@H]2C(=O)N3)cc1` [NCGC00391742-01]: the IC50 was 0.0124 mM.

With `O=C(NC[C@H]1Cn2cc(-c3ccc4c(c3)OCCCO4)nc2CO1)c1ccc2c(c1)OCO2` [NCGC00392108-01], the IC50 was determined as 0.00989 mM. With `O=C([C@@H]1C[C@@H](O)[C@H](O)[C@@H]2NC(=S)N(c3ccc(OC(F)(F)F)cc3)[C@@H]21)N1CCCCC1` [NCGC00392138-01], the IC50 is more than 0.03 mM. `CCNC(=O)N[C@@H]1C=C[C@@H](c2c(C)nn(-c3ccc(F)cc3)c2C)C1` [NCGC00392634-01]: the IC50 is 0.0202 mM. Regarding `O=C1N(c2ccccc2)C[C@H]2CN(Cc3ccccc3)CCN12` [NCGC00393129-01], the IC50 was 0.0202 mM. For `c1ccc(-c2cn3c(n2)CO[C@@H](CNCc2cccs2)C3)cc1` [NCGC00393328-01], the IC50 worked out at 0.0202 mM.

In the case of `COc1ccc(CN2CCOC[C@H](OCC(=O)N(C)C)C2)cc1` [NCGC00393502-01], the IC50 was more than 0.03 mM. The same measure for `CSc1ccc(-c2ccc3c(c2)C(=O)N2CC[C@H](NC(=O)c4cccs4)[C@H]2C(=O)N3)cc1` [NCGC00393756-01]: 0.0124 mM.

Take `CC1=C[C@@H](CNC(=O)c2ccncc2)[C@H](C(C)C)C[C@H]1CC(=O)N1CCOCC1` [NCGC00394503-01]: the IC50 was more than 0.03 mM.

As for `CN(C)c1ccc(-c2noc([C@@H]3CCCN3Cc3cnc4ccccc4c3)n2)cn1` [NCGC00394599-01], the IC50 is more than 0.03 mM. Consider `Cc1ccc(-n2nc(C)c([C@H]3C=C[C@@H](O)C3)c2C)cc1Cl` [NCGC00394636-01], for which the IC50 is 0.0128 mM. In the case of `Cc1nn(-c2ccc(C(C)(C)C)cc2)c(C)c1[C@@H]1C=C[C@@H](NC(=O)c2ccco2)C1` [NCGC00394638-01], the IC50 came to 0.0202 mM. For `COc1ccc(CNC(=O)C[C@@H]2C[C@@H](C(C)C)[C@H](CNC(=O)c3cccnc3)C=C2C)cc1` [NCGC00394780-01] the value was more than 0.03 mM; for `Cn1c([C@H]2CCN(C3CCCCC3)C2)nc2ccccc21` [NCGC00394901-01], 0.0254 mM; for `CC(C)(C)c1ccc(C(=O)Nc2ccc(C(O)[C@H]3COCC(=O)N3Cc3ccccc3)cc2)cc1` (stereo partly shown) [NCGC00394950-01], more than 0.03 mM.

Regarding `O=C(Nc1ccc([C@H]2OCC(=O)N(Cc3ccncc3)[C@@H]2CO)cc1)c1ccc(C(F)(F)F)cc1` [NCGC00395114-01], the IC50 came out at 0.0111 mM.

Turning to `O=C(O)COCC(=O)N[C@H]1CCN2C(=O)c3cc(/C=C/c4ccccc4)ccc3NC(=O)[C@H]12` [NCGC00395144-01], the IC50 was found to be 0.0124 mM. With `CC(C)(C)CC(=O)N1C[C@@H]2C[C@H](C1)c1ccc(NC(=O)Nc3cccc(F)c3)c(=O)n1C2` [NCGC00395227-01], the IC50 is more than 0.03 mM.

With `O=C(Nc1ccc(Cl)cc1)Nc1ccc2n(c1=O)C[C@H]1C[C@@H]2CN(C(=O)c2ccc3ccccc3c2)C1` [NCGC00395236-01], the IC50 amounted to 0.0124 mM. The same measure for `COc1ccc(-c2noc([C@@H]3C[C@H](NCc4ccccn4)CN3C)n2)cc1` [NCGC00395774-01]: 0.0202 mM; for `CC(C)(CC(=O)O)CC(=O)N1Cc2nc[nH]c2C[C@H]1c1nc(Cc2ccccc2)no1` [NCGC00396501-01]: more than 0.03 mM. The same measure for `Cc1ccccc1CN1CC[C@H](c2nc3cc(F)ccc3[nH]2)C1` [NCGC00396601-01]: 0.0255 mM. As to `Cn1ccnc1CN1C(=O)CO[C@H](c2ccc(NC(=O)Nc3ccccc3)cc2)[C@H]1CO` [NCGC00396650-01], the IC50 is 0.014 mM.

With `CC(C)(C)c1ccc(C(=O)Nc2ccc([C@H]3OCC(=O)N[C@@H]3CO)cc2)cc1` [NCGC00396656-01], the IC50 was found to be 0.0161 mM. Take `Cc1ccc2oc([C@H]3CCN(Cc4cccs4)C3)nc2c1` [NCGC00397825-01]: the IC50 is 0.018 mM. The same measure for `CC(=O)N[C@@H]1C=C[C@@H](c2c(C)nn(-c3ccc(C(C)(C)C)cc3)c2C)C1` [NCGC00397882-01]: 0.018 mM; for `O=C([C@@H]1C[C@@H](O)[C@H](O)[C@@H]2NC(=S)N(c3ccc4c(c3)OCO4)[C@@H]21)N1CCOCC1` [NCGC00397934-01]: 0.0143 mM; for `Cc1ccc2[nH]c([C@H]3CCN(Cc4cccs4)C3)nc2c1` [NCGC00397946-01]: 0.0202 mM. The same measure for `CCNC(=O)N[C@@H]1C=C[C@@H](c2c(C)nn(-c3ccc(C(F)(F)F)cc3)c2C)C1` [NCGC00397974-01]: 0.0143 mM; for `COc1ccc(C(=O)Nc2ccc3n(c2=O)C[C@H]2C[C@@H]3CN(C(=O)CCCC(=O)O)C2)cc1` [NCGC00397987-01]: 0.0157 mM. For `O=C(Nc1ccccc1)Nc1ccc2n(c1=O)C[C@H]1C[C@@H]2CN(C(=O)c2ccccc2)C1` [NCGC00397999-01] the value was 0.018 mM; for `O=C(Nc1cccc(F)c1)Nc1ccc2n(c1=O)C[C@H]1C[C@@H]2CN(C(=O)c2ccc(F)cc2)C1` [NCGC00398007-01], 0.007 mM; for `C[C@H](C(=O)NCCN1CCOCC1)C1CC[C@@]2(C)Cc3sc(CSc4ccccc4)nc3[C@@H](C)[C@@H]2[C@H]1O` (stereo partly shown) [NCGC00398276-01], 0.0124 mM. On to `COc1ccc(-c2ccc3c(c2)C(=O)N2CC[C@H](NC(=O)c4cccc(F)c4)[C@H]2C(=O)N3)cc1` [NCGC00399389-01], for which the IC50 amounted to 0.00989 mM. For the molecule `CC(C)c1ccc(NC(=O)O[C@@H]2CO[C@H]3[C@@H]2OC[C@@H]3N[S+](=O)([O-])c2cccs2)cc1` [NCGC00399549-01], the IC50 was determined as 0.00881 mM. For `CCNC(=O)N[C@@H]1C=C[C@@H](c2c(C)nn(-c3ccc(C(C)C)cc3)c2C)C1` [NCGC00399948-01] the value was 0.00286 mM; for `Cc1nn(-c2ccc(C(C)C)cc2)c(C)c1[C@@H]1C=C[C@@H](NC(=O)NC(C)C)C1` [NCGC00399949-01], 0.018 mM.

For `Cc1ccc(-n2nc(C)c([C@@H]3C=C[C@@H](NC(=O)NC(C)C)C3)c2C)cc1Cl` [NCGC00399958-01], the IC50 is 0.0143 mM.

With `Cc1ccc(-n2nc(C)c([C@@H]3C=C[C@@H](NC(=O)NCc4ccccc4)C3)c2C)cc1Cl` [NCGC00399961-01], the IC50 was 0.018 mM. For `Cc1ccc(-n2nc(C)c([C@@H]3C=C[C@@H](NC(=O)Nc4ccc(Cl)cc4)C3)c2C)cc1Cl` [NCGC00400070-01] the value was 0.00989 mM; for `Cc1nn(-c2ccc(C(C)(C)C)cc2)c(C)c1[C@@H]1C=C[C@@H](NC(=O)CCCC(=O)O)C1` [NCGC00400254-01], 0.0202 mM.
